Test results taken from US8992977B2, “Multi-day delivery of biologically active substances” (Samos Pharmaceuticals, LLC, priority 2007, dated 2015).
Where two headings read alike, the source gives them in different places.

Assays:
[1] = cited from earlier work
[2] = cited from earlier work; remark: listed apart in the source
[3] = cited from earlier work; for t1/2: carrier drug, as repeated in the examples
[4] = Hydrolysis of ethinyl estradiol (EE) from conjugate of Example 16; format: physicochemical; conditions: for Ethinyl Estradiol Released (%): 9:4 ethanol/0.05 M phosphate buffer pH 7.4, 37° C.
Description: Estradiol conjugate (33.5 mg, 0.039 mmol), prepared from Conjugate 1 as described in Example 16, was dissolved in 58 mL of a 9:4 ethanol/0.05 M aqueous phosphate buffer (pH 7.4) mixture, and the solution was shaken in a 37° C. incubator for 9 days. Six 8 mL aliquots were collected at 1-, 2-, 3-, 5-, 7-, and 9-day intervals. Estradiol release was quantified by adding 33 μL of a 0.09 M solution of butylated hydroxytoluene (BHT) in deuterochloroform as an internal standard, then comparing integrals of 1H NMR signals corresponding to the steroid and the internal standard.

[5] = cited from earlier work; for short half life from triacylglycerols (TAG) / following half life from triacylglycerols (TAG): bi-exponential pattern; for short half life from triacylglycerols (TAG): first phase; for following half life from triacylglycerols (TAG): second phase
[6] = Hydrolysis of ethinyl estradiol (EE) from conjugate 1; format: physicochemical; conditions: for Ethinyl Estradiol Released (%): 2:1 ethanol/0.05 M phosphate buffer pH 7.4, 37° C.
Description: Estradiol conjugate 1 (23.0 mg, 0.027 mmol) was dissolved in 48 mL of a 2:1 ethanol/0.05 M aqueous phosphate buffer (pH 7.4) mixture, and the solution was shaken in a 37° C. incubator for 6 days. Estradiol release was determined by integration of ^1H NMR signals obtained from three 8.5 mL aliquots, which were collected at 2-, 3-, and 6-day intervals.

[7] = Calculation of pharmacokinetic profile of orally delivered 3 1/2 day or 7 day pill; conditions: k 0.42
Description: Since the release of EE is from a non-constant activity source, i.e., the concentration of the conjugate is continuously decreasing, the release of EE from the conjugate will obey a first order release and thus be proportional to the concentration of conjugate at any time t. These equations have been solved and the final equation describing the release of the EE is given by the equation Mt/M0=1−1/exp(kt), where Mt is the amount of EE released from the conjugate, M0 is the total amount of EE, Mt/M0 is the percent EE released from the conjugate, k is a proportionality constant and t is the time. The constant k was calculated from the data shown in example 17 to be 0.42. […] The pharmacokinetic profiles obtained using pills containing 150 (7 day pill) and 110 (3½ day pill) microgram equivalents of EE are shown in FIG. 1A and FIG. 1B.
As was shown in Example 18, the release from the EE conjugate is governed by the equation Mt/M0=1−1/exp(kt). The value of k was 0.42 as determined from the data of example 17. As discussed in the detailed description of illustrative embodiments, the release can be controlled by many different factors. To obtain half the release rate of EE as compared with that of conjugate of example 17, a value of k=0.22 was used. Using k=0.22 and the pharmacokinetic parameters shown in Example 18, the graphs shown in FIG. 2A and FIG. 2B were obtained. […]

[8] = cited from earlier work; remark: listed apart in the source
[9] = Table 1, alcohol moiety, 60% acetone, temperature 25
[10] = Table 1, alcohol moiety, 60% acetone, temperature 1
[11] = Table 2, acid moiety, 70% acetone, temperature 24.7
[12] = Table 2, acid moiety, water, temperature 24.7
[13] = Table 1, alcohol moiety, 70% acetone, temperature 24.7
[14] = The Pharmacological Basis of Therapeutics 10th ed., Physicians Desk Reference 58th Ed.
[15] = carotenoids, J. of Nutrition 2001, 131, 2096
[16] = Physicians Desk Reference p. 3372, 57 ed., 2003

## CC(=O)OCc1ccc([N+](=O)[O-])cc1
[1]; [9]
  kOH: 0.269 M⁻¹ s⁻¹

## CC(=O)Oc1ccc([N+](=O)[O-])cc1
[1]; [10]
  kOH: 2.2 M⁻¹ s⁻¹

## CC(=O)Oc1cccc(C)c1
[1]; [10]
  kOH: 0.09 M⁻¹ s⁻¹

## CC(C)=CCC\C(C)=C/C=C/C(C)=C/C=C/C(C)=C/C=C/C=C(C)/C=C/C=C(C)/C=C/C=C(\C)CCC=C(C)C [5-Z lycopene]
[2]; in vivo
  half life: 220 h

## CCOC(=O)C(CC)CC [(C2H5)2CHCOOC2H5]
[1]; [11]
  kOH: 0.000083 M⁻¹ s⁻¹

## CCOC(=O)C(C)(C)C [(CH3)3CCOOC2H5]
[1]; [11]
  kOH: 0.00022 M⁻¹ s⁻¹

## CCOC(=O)C[N+](C)(C)C [(CH3)3N^+CH2COOC2H5]
[1]; [12]
  kOH: 98.0 M⁻¹ s⁻¹

## CC(=O)OC[C@H]1O[C@@H]([S-])[C@H](OC(C)=O)[C@@H](OC(C)=O)[C@@H]1OC(C)=O.CCP(CC)CC.[Au+] [Auranofin]
[3]; in vivo
  half life: 408 to 600 h

## CCCOC(C)=O [CH3COO(CH2)2CH3]
[1]; [13]
  kOH: 0.027 M⁻¹ s⁻¹

## CCOC(C)=O [CH3COOC2H5]
[1]; [13]
  kOH: 0.047 M⁻¹ s⁻¹
[1]; [11]
  kOH: 0.047 M⁻¹ s⁻¹

## CC(=O)Oc1ccccc1 [CH3COOC6H5]
[1]; [9]
  kOH: 0.537 M⁻¹ s⁻¹

## CC(=O)OC(C)(C)C [CH3COOC(CH3)3]
[1]; [13]
  kOH: 0.00027 M⁻¹ s⁻¹

## COC(C)=O [CH3COOCH3]
[1]; [13]
  kOH: 0.108 M⁻¹ s⁻¹

## CC(=O)OC(C)C [CH3COOCH(CH3)2]
[1]; [13]
  kOH: 0.007 M⁻¹ s⁻¹

## CCOC(=O)CSC [CH3SCH2COOC2H5]
[1]; [12]
  kOH: 0.92 M⁻¹ s⁻¹

## CCOC(=O)C[S+](C)[O-] (stereo not drawn) [CH3SOCH2COOC2H5]
[1]; [12]
  kOH: 4.20 M⁻¹ s⁻¹

## CCOC(=O)CCl [ClCH2COOC2H5]
[1]; Table 2, acid moiety, Water, μ = 0.2, temperature 24.7
  kOH: 33.2 M⁻¹ s⁻¹

## C#C[C@]1(O)CC[C@H]2[C@@H]3CCc4cc(OC(=O)CCC(=O)OC(c5cc(C(F)(F)F)nc6c(C(F)(F)F)cccc56)C5CCCCN5)ccc4[C@H]3CC[C@@]21C (stereo partly drawn) [Conjugate of Example 16]
[4]
  rate of hydrolysis compared with Conjugate 1: slower than that of Conjugate 1
[4]; Day 1
  Ethinyl Estradiol Released (%): 30%
[4]; Day 2
  Ethinyl Estradiol Released (%): 50%
[4]; Day 3
  Ethinyl Estradiol Released (%): 63%
[4]; Day 5
  Ethinyl Estradiol Released (%): 77%
[4]; Day 7
  Ethinyl Estradiol Released (%): 88%
[4]; Day 9
  Ethinyl Estradiol Released (%): 98%

## CC/C=C\C/C=C\C/C=C\C/C=C\C/C=C\C/C=C\CCC(=O)O [DHA, docosahexaenoic acid]
[5]
  short half life from triacylglycerols (TAG): less than a day
  following half life from triacylglycerols (TAG): several days

## CC(C)=CCC/C(C)=C/C=C/C(C)=C/C=C/C(C)=C/C=C/C=C(C)/C=C/C=C(C)/C=C/C=C(\C)CCC=C(C)C [E lycopene]
[2]; in vivo
  half life: 120 h

## CC/C=C\C/C=C\C/C=C\C/C=C\C/C=C\CCCC(=O)O [EPA, eicosapentaenoic acid]
[5]; Br. J. Nutr. 1999
  mean half life in cholesteryl esters (CE): 78.5 h
[5]
  short half life from triacylglycerols (TAG): less than a day
  following half life from triacylglycerols (TAG): several days

## CNCCC(Oc1ccc(C(F)(F)F)cc1)c1ccccc1 (stereo not drawn) [Fluoxetine]
[3]; [14]
  half life: 53 h
[3]
  t1/2: 53 h

## CCOC(=O)CN [H3N^+CH2COOC2H5]
[1]; [12]
  kOH: 60.5 M⁻¹ s⁻¹

## CCN(CCO)CCCC(C)Nc1ccnc2cc(Cl)ccc12 (stereo not drawn) [Hydroxychloroquine]
[3]; [14]
  half life: 1220 h

## OC(c1cc(C(F)(F)F)nc2c(C(F)(F)F)cccc12)C1CCCCN1 (stereo not drawn) [Mefloquine]
[3]; [14]
  half life: 480 ± 96 h

## COc1ccc2cc(CCC(C)=O)ccc2c1 [Nabumetone]
[3]; [14]
  half life: 23 h

## CNCCC=C1c2ccccc2CCc2ccccc21 [Nortriptyline]
[3]; [14]
  half life: 31 h

## CCC1(c2ccccc2)C(=O)NC(=O)NC1=O [Phenobarbital]
[3]; [14]
  half life: 99 h

## O=c1[nH]c2ccccc2n1C1CCN(CCCC(c2ccc(F)cc2)c2ccc(F)cc2)CC1 [Pimozide]
[3]; [14]
  half life: 111 h

## CNCCCC1c2ccccc2C=Cc2ccccc21 [Protriptyline]
[3]; [14]
  half life: 78 h
[3]
  t1/2: 76 h

## CO[C@H]1C[C@@H]2CC[C@@H](C)[C@@](O)(O2)C(=O)C(=O)N2CCCC[C@H]2C(=O)O[C@H]([C@H](C)C[C@@H]2CC[C@@H](O)[C@H](OC)C2)CC(=O)[C@H](C)/C=C(\C)[C@@H](O)[C@@H](OC)C(=O)[C@H](C)C[C@H](C)/C=C/C=C/C=C/1C [Sirolimus]
[3]; [14]
  half life: 62 h
[3]
  t1/2: 62 h

## CN(C)CCOc1ccc(/C(=C(/CCCl)c2ccccc2)c2ccccc2)cc1 [Toremifene]
[3]; [14]
  half life: 148 h

## CC1=CCCC(C)(C)[C@H]1/C=C/C(C)=C/C=C/C(C)=C/C=C/C=C(C)/C=C/C=C(C)/C=C/C1=C(C)CCCC1(C)C [alpha carotene]
[2]; [15]
  half life: 1080 h

## CC1=C(/C=C/C(C)=C/C=C/C(C)=C/C=C/C=C(C)/C=C/C=C(C)/C=C/C2=C(C)CCCC2(C)C)C(C)(C)CCC1 [beta carotene]
[2]; [15]
  half life: 888 h

## CC1=C(/C=C/C(C)=C/C=C/C(C)=C/C=C/C=C(C)/C=C/C=C(C)/C=C/C2=C(C)C[C@@H](O)CC2(C)C)C(C)(C)CCC1 [beta cryptoxanthin]
[2]; [15]
  half life: 936 h

## C#C[C@]1(O)CC[C@H]2[C@@H]3CCc4cc(OC(=O)CCC(=O)OC(c5cc(C(F)(F)F)nc6c(C(F)(F)F)cccc56)C5CCCCN5C(=O)OC(C)(C)C)ccc4[C@H]3CC[C@@]21C (stereo partly drawn) [conjugate 1]
[6]; 2:1 ethanol/phosphate buffer pH 7.4, 37° C.
  period over which ethinyl estradiol is released: over a several day period
[6]; Day 2
  Ethinyl Estradiol Released (%): 57%
[6]; Day 3
  Ethinyl Estradiol Released (%): 67%
[6]; Day 6
  Ethinyl Estradiol Released (%): 100%
[6]; calculated from the data of example 17
  proportionality constant k of first order release Mt/M0=1−1/exp(kt): 0.42
[7]; 1 pill every 7 days, 150 microgram equivalents of EE
  peak to valley ratio: 5.1
[7]; pill once every 3½ days, 110 microgram equivalents of EE
  peak to valley ratio (Css.max to Css.min): less than two

## C#C[C@]1(O)CC[C@H]2[C@@H]3CCc4cc(O)ccc4[C@H]3CC[C@@]21C [ethinyl estradiol]
[8]; [16]
  CL/F: 8.1 mL/min/kg
  half life: 18.7 h

## C#C[C@]1(O)CC[C@H]2[C@@H]3CCC4=CC(=O)CC[C@@H]4[C@H]3CC[C@@]21CC [levonorgestrel]
[8]; ovulation suppression use
  plasma concentrations: about 1 microgram per ml

## CCCCC/C=C\C/C=C\CCCCCCCC(=O)O [linoleic acid]
[5]; essential fatty acids as drug carriers
  t1/2: 24 h

## CC1=C[C@H](O)CC(C)(C)[C@H]1/C=C/C(C)=C/C=C/C(C)=C/C=C/C=C(C)/C=C/C=C(C)/C=C/C1=C(C)C[C@@H](O)CC1(C)C [lutein]
[2]; [15]
  half life: 1820 h

## CC(C)=CCC/C(C)=C/C=C/C(C)=C/C=C/C(C)=C/C=C/C=C(C)/C=C/C=C(C)/C=C/C=C(\C)CCC=C(C)C [lycopene]
[2]; [15]
  half life: 624 h

## CCCC(=O)OCC [nC3H7COOC2H5]
[1]; [11]
  kOH: 0.088 M⁻¹ s⁻¹

## CC1=C(/C=C/C(C)=C/C=C/C(C)=C/C=C/C=C(C)/C=C/C=C(C)/C=C/C2=C(C)CC(O)CC2(C)C)C(C)(C)CC(O)C1 (stereo not drawn) [zeaxanthin]
[2]; [15]
  half life: 912 h

## Gold sodium thiomalate
[3]; [14]
  half life: 600 h

## Infliximab
[3]; in vivo
  half life: 228 h

## Ivermectin
[3]; [14]
  half life: 57 h
